Holding throughout (assay type): cell-based
One test deals with BG 01. The test is described as follows: MIC of G418 in liquid medium. Particulars: industrial strain BG 01. The protocol: (§1) Bacterial strains used as plasmid hosts included: Escherichia coli DH5: F'lendA1 hsdr17 (rk^−mk^−) supE44 thi-1 recA1 gyrA(Nal^r) relA1 (lacZYA-argF)U169 deoR (80dlac (lacZ)M15) (Sambrook et al., 1989). Yeast were tested in solid medium YPD and eight industrial strains, from laboratory and seven Amazonian strains were sensitive to 200 μg/ml and 500 μg/ml of G418. Afterwards, the minimum concentration of antibiotic that inhibits the growth (MIC) in liquid medium was determined (Table 1).

A further test concerns CR-01. The test is described as follows: MIC of G418 in liquid medium. Particulars: industrial strain CR-01. As to the method:
as §1

The test system of the next test is Fermix. The test is described as follows: MIC of G418 in liquid medium. The following applies: industrial strain Fermix. As to the method: as §1
The test system of the next test is L101. The test is described as follows: MIC of G418 in liquid medium. Particulars: wild-type Amazon strain L101. The protocol: as §1
For the next test, the system named is L103. The test is described as follows: MIC of G418 in liquid medium. Particulars: wild-type Amazon strain L103. As to the method:
as §1

The subject of a further test is L105. Briefly: MIC of G418 in liquid medium. The following applies: industrial strain L105. As to the method:
as §1

In a further test the test system is L106. The test is described as follows: MIC of G418 in liquid medium. Particulars: industrial strain L106. As to the method: as §1
The subject of the next test is L110. The test is described as follows: MIC of G418 in liquid medium. The following applies: wild-type Amazon strain L110. As to the method:
as §1

The test system of a further test is L136. The test is described as follows: MIC of G418 in liquid medium. The following applies: wild-type Amazon strain L136. As to the method: as §1
The test system of another test is L151. The test is described as follows: MIC of G418 in liquid medium. Particulars: wild-type Amazon strain L151. As to the method:
as §1

A further test relates to L69. Briefly: MIC of G418 in liquid medium. The following applies: wild-type Amazon strain L69. The protocol: as §1
For another test, the system named is L77. The test is described as follows: MIC of G418 in liquid medium. Particulars: wild-type Amazon strain L77. As to the method: as §1
The subject of test [1] is Montrachet de la Champagne. The test is described as follows: MIC of G418 in liquid medium. Particulars: industrial strain Montrachet de la Champagne. As to the method:
as §1

The next test deals with PE-2. The test is described as follows: MIC of G418 in liquid medium. The following applies: industrial strain PE-2. As to the method: as §1
A further test concerns S288C. The test is described as follows: MIC of G418 in liquid medium. The following applies: Saccharomyces cerevisiae, strain S288C. As to the method:
as §1

In a further test the test system is YPH252. The test is described as follows: MIC of G418 in liquid medium. Particulars: Saccharomyces cerevisiae, strain YPH252. The protocol: as §1
In the next test the test system is SA-01. The test is described as follows: organism not typed.

As for `CN[C@@H]1[C@@H](O)[C@@H](O[C@@H]2[C@@H](O)[C@H](O[C@H]3O[C@H]([C@@H](C)O)[C@@H](O)[C@H](O)[C@H]3N)[C@@H](N)C[C@H]2N)OC[C@]1(C)O` [G418, geneticin], the MIC in the test on BG 01 is at most 50 µg/mL; in the test with CR-01, at most 50 µg/mL; in the test on Fermix it was at most 50 µg/mL; in the test with L101, 100 µg/mL; in the test on L103 it was 150 µg/mL; in the test on L105, 25 µg/mL. Moreover, the MIC with L106 worked out at 25 µg/mL; with L110, 150 µg/mL; in the test with L136, 25 µg/mL; with L151 it was 12.5 µg/mL; in the test with L69, 100 µg/mL; in the test on L77, 25 µg/mL. Moreover, the MIC result is “≦50 μg/ml” in test [1]; at most 50 µg/mL in the test on PE-2; 100 µg/mL in the test on S288C; at most 50 µg/mL in the test with YPH252; at most 50 µg/mL against SA-01.

For the origin of these results see patent US20040161820A1 (priority 2001, published 2004).
